# In publication PMC8906060 (Antiviral Research, 2022):
# Tests used:
# 3CLpro = 3CLpro (Severe acute respiratory syndrome coronavirus 2, UniProt P0DTD1); format: biochemical, SARS-CoV-2
# SARS-CoV-2 3CLpro = SARS-CoV-2 3CLpro (Severe acute respiratory syndrome coronavirus 2, UniProt P0DTD1); format: biochemical; conditions: read-out: 3CLpro IC50
# SARS-CoV-2 = test: microbe, parasite or virus in culture; format: cell-based; conditions: Severe acute respiratory syndrome coronavirus 2
# COVID-19 = COVID-19 patients, ref Beigel et al., 2020, cited from earlier work
smiles,measurement,setting,value
COc1ccc(-c2nc(NC(=O)c3ccc(C)c(F)c3)n[nH]2)cc1OC [Compound 30],FRET IC50,3CLpro,high fluorescent signals
COC(=O)c1c(C)[nH]c(C(=O)COn2nnc3ccc(S(=O)(=O)N(C)C)cc32)c1C [Compound 12],IC50,3CLpro; read-out: FRET IC50,350 nM
same,IC50,SARS-CoV-2 3CLpro,1320 nM
CCC(CC)COC(=O)[C@H](C)N[P@](=O)(OC[C@H]1O[C@@](C#N)(c2ccc3c(N)ncnn23)[C@H](O)[C@@H]1O)Oc1ccccc1 [Remdesivir],EC50,SARS-CoV-2,1840 nM
same,recovery,COVID-19; reduced from 15 days,11 days
same,effect on mortality,COVID-19,no significant effect
